Assay results reported in ChEMBL document CHEMBL2029331, “Red fluorescent scaffold for highly sensitive protease activity probes” (Bioorg Med Chem Lett, 2012).
Activity calls are given as the source filed them. The calls are words filed in the database; no cut-off is given here.

Columns and labels:
[1] = target: T1, Caspase-3 (Homo sapiens) (UniProt P42574); assay: Activity of caspase3 assessed as SiR600 release by measuring increase in fluorescence intensity at 2 uM after 10 hrs by FRET assay relative to control
T1 sequence (whole entry): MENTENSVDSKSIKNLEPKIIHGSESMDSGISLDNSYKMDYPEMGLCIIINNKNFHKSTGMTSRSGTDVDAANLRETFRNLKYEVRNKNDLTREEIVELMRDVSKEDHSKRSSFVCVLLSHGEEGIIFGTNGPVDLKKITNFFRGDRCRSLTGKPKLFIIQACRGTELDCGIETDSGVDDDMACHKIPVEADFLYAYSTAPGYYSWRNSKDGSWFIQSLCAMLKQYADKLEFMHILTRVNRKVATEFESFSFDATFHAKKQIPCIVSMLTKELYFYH

[2] = target: Leucyl-cystinyl aminopeptidase (Homo sapiens) (UniProt Q9UIQ6); assay: Activity of leucine aminopeptidase after 2.5 hrs by spectrophotometry
[3] = target: T1, Caspase-3 (Homo sapiens); assay: Activity of caspase3 assessed as Kcat/Km ratio after 10 hrs by spectrophotometry relative to Ac-DEVD-AMC

Chain of Leucyl-cystinyl aminopeptidase (Homo sapiens) (Q9UIQ6 whole entry): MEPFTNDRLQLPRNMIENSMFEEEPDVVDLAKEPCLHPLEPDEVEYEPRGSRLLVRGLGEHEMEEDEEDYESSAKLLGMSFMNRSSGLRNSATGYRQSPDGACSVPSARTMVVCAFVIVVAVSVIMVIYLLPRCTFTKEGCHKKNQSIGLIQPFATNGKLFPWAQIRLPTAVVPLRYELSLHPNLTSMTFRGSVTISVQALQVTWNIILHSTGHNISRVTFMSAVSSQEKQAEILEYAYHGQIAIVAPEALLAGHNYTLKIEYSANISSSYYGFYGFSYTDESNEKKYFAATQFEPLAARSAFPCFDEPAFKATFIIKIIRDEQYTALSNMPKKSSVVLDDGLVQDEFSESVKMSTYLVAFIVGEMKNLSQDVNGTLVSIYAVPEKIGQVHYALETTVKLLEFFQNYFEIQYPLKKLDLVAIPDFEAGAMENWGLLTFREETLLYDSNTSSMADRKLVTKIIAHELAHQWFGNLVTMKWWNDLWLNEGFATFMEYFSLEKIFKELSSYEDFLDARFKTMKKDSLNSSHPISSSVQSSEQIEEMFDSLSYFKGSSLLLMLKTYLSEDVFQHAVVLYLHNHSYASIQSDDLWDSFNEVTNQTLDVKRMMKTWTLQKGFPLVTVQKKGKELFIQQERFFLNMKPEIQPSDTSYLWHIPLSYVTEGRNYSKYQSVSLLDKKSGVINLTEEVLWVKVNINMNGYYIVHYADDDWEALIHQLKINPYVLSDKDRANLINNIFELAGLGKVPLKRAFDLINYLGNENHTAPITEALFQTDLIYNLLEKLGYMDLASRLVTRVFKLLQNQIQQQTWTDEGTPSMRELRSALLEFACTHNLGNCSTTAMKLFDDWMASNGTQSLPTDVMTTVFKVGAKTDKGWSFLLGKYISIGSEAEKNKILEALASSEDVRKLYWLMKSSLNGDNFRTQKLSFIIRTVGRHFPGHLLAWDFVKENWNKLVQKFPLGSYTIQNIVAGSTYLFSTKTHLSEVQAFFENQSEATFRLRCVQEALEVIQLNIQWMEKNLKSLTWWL

fold change (FC) [1]: 432
Activity [2]: Active
fold change (FC) [3]: 40
SMILES: Cc1ccccc1C1=C2C=CC(=N)C=C2[Si](C)(C)c2cc(NC(=O)[C@H](CC(=O)O)NC(=O)[C@@H](NC(=O)[C@H](CCC(=O)O)NC(=O)[C@H](CC(=O)O)NC(=O)OCc3ccccc3)C(C)C)ccc21
